Measured values reported in ChEMBL document CHEMBL3885881, “DrugMatrix”.

Organism: Rattus norvegicus
Assay: DrugMatrix - Regimen: Daily Repeat
Format: toxicity, organism-based, Sprague-Dawley
Parameters: regimen Daily Repeat, gender Male, age 6-8 weeks
Conditions: in vivo, po, 0 mg/kg, route oral GAVAGE, dose level Control, […]; for ABSOLUTE BASOPHIL / ABSOLUTE EOSINOPHIL / ABSOLUTE LYMPHOCYTE / ABSOLUTE MONOCYTE / BASOPHIL / EOSINOPHIL / ERYTHROCYTE COUNT / HEMATOCRIT / HEMOGLOBIN / LEUKOCYTE COUNT / LYMPHOCYTE / MEAN CORPUSCULAR HEMOGLOBIN / MEAN CORPUSCULAR HEMOGLOBIN CONCENTRATION / MEAN CORPUSCULAR VOLUME / MONOCYTE / NEUTROPHIL / PLATELET COUNT: tissue Blood
[1] = 72 h, tissue Plasma, time 3 day
[2] = 120 h, tissue Plasma, time 5 day

`Clc1ccc(Cl)cc1` [1,4-DICHLOROBENZENE] showed an ABSOLUTE BASOPHIL (72 h, time 3 day) of 50 cells/µL, an ABSOLUTE EOSINOPHIL (72 h, time 3 day) of 43.3 cells/µL and an ABSOLUTE LYMPHOCYTE (72 h, time 3 day) of 9670 cells/µL. For the same compound, the ABSOLUTE MONOCYTE (72 h, time 3 day) was 210 cells/µL, the BASOPHIL (72 h, time 3 day) was 0.4% and the EOSINOPHIL (72 h, time 3 day) was 0.37%. The “ERYTHROCYTE COUNT” value (72 h, time 3 day) was 6.82 x10E6/uL, the HEMATOCRIT (72 h, time 3 day) was 46.77% and the HEMOGLOBIN (72 h, time 3 day) was 14.53 G/DL. The “LEUKOCYTE COUNT” value (72 h, time 3 day) was 11.77 x10E3/uL, the LYMPHOCYTE (72 h, time 3 day) was 82.1% and the “MEAN CORPUSCULAR HEMOGLOBIN” value (72 h, time 3 day) was 21.33 pg. The “MEAN CORPUSCULAR HEMOGLOBIN CONCENTRATION” value (72 h, time 3 day) was 31.13 G/DL, the “MEAN CORPUSCULAR VOLUME” value (72 h, time 3 day) was 68.57 fL and the MONOCYTE (72 h, time 3 day) was 1.8%. The NEUTROPHIL (72 h, time 3 day) was 14.83%, the “PLATELET COUNT” value (72 h, time 3 day) was 1303.33 x10E3/uL and the “ALANINE AMINOTRANSFERASE” value [1] was 46.67 u/L. The ALBUMIN [1] was 4.17 G/DL, the “ALKALINE PHOSPHATASE” value [1] was 530 u/L and the “ASPARTATE AMINOTRANSFERASE” value [1] was 81.33 u/L. The “BLOOD UREA NITROGEN” value [1] was 17.67 mg/dL, the “CARBON DIOXIDE” value [1] was 41.67 mmol/L and the CHLORIDE [1] was 102 MEQ/L. For the same compound, the CHOLESTEROL [1] was 70.33 mg/dL, the “CREATINE PHOSPHOKINASE” value [1] was 372.67 u/L and the CREATININE [1] was 0.5 mg/dL. It also gave a GLUCOSE [1] of 184 mg/dL, an LIPASE [1] of 13.33 u/L and a PHOSPHORUS [1] of 10.2 mg/dL. The POTASSIUM [1] was 6.13 MEQ/L, the SODIUM [1] was 145 MEQ/L and the “TOTAL BILIRUBIN” value [1] was 0.43 mg/dL. For the same compound, the “TOTAL PROTEIN” value [1] was 6.7 G/DL, the “URIC ACID” value [1] was 0.83 mg/dL and the ABSOLUTE BASOPHIL (120 h, time 5 day) was 33.3 cells/µL. The ABSOLUTE EOSINOPHIL (120 h, time 5 day) was 56.7 cells/µL, the ABSOLUTE LYMPHOCYTE (120 h, time 5 day) was 9220 cells/µL and the ABSOLUTE MONOCYTE (120 h, time 5 day) was 230 cells/µL. For the same compound, the BASOPHIL (120 h, time 5 day) was 0.3%, the EOSINOPHIL (120 h, time 5 day) was 0.5% and the “ERYTHROCYTE COUNT” value (120 h, time 5 day) was 6.62 x10E6/uL. The HEMATOCRIT (120 h, time 5 day) was 46.43%, the HEMOGLOBIN (120 h, time 5 day) was 14.3 G/DL and the “LEUKOCYTE COUNT” value (120 h, time 5 day) was 10.96 x10E3/uL. For the same compound, the LYMPHOCYTE (120 h, time 5 day) was 83.83%, the “MEAN CORPUSCULAR HEMOGLOBIN” value (120 h, time 5 day) was 21.57 pg and the “MEAN CORPUSCULAR HEMOGLOBIN CONCENTRATION” value (120 h, time 5 day) was 30.77 G/DL. For the same compound, the “MEAN CORPUSCULAR VOLUME” value (120 h, time 5 day) was 70.13 fL, the MONOCYTE (120 h, time 5 day) was 2.1% and the NEUTROPHIL (120 h, time 5 day) was 12.53%. For the same compound, the “PLATELET COUNT” value (120 h, time 5 day) was 1056.67 x10E3/uL, the “ALANINE AMINOTRANSFERASE” value [2] was 41.33 u/L and the ALBUMIN [2] was 4.07 G/DL. The “ALKALINE PHOSPHATASE” value [2] was 603.33 u/L, the “ASPARTATE AMINOTRANSFERASE” value [2] was 80 u/L and the “BLOOD UREA NITROGEN” value [2] was 14.67 mg/dL. For the same compound, the “CARBON DIOXIDE” value [2] was 43 mmol/L, the CHLORIDE [2] was 104 MEQ/L and the CHOLESTEROL [2] was 88.33 mg/dL. The “CREATINE PHOSPHOKINASE” value [2] was 391.67 u/L, the CREATININE [2] was 0.47 mg/dL and the GLUCOSE [2] was 156 mg/dL. The LIPASE [2] was 10.67 u/L, the PHOSPHORUS [2] was 9.03 mg/dL and the POTASSIUM [2] was 6.1 MEQ/L. The SODIUM [2] was 145.67 MEQ/L, the “TOTAL BILIRUBIN” value [2] was 0.37 mg/dL and the “TOTAL PROTEIN” value [2] was 6.53 G/DL. For the same compound, the “URIC ACID” value [2] was 0.5 mg/dL, the ABSOLUTE BASOPHIL (time 14 day) was 73.3 cells/µL and the ABSOLUTE EOSINOPHIL (time 14 day) was 60 cells/µL. It also gave an ABSOLUTE LYMPHOCYTE (time 14 day) of 12200 cells/µL, an ABSOLUTE MONOCYTE (time 14 day) of 250 cells/µL and a BASOPHIL (time 14 day) of 0.5%. The EOSINOPHIL (time 14 day) was 0.37%, the “ERYTHROCYTE COUNT” value (time 14 day) was 7.33 x10E6/uL and the HEMATOCRIT (time 14 day) was 44.3%. For the same compound, the HEMOGLOBIN (time 14 day) was 14.77 G/DL, the “LEUKOCYTE COUNT” value (time 14 day) was 14.86 x10E3/uL and the LYMPHOCYTE (time 14 day) was 81.87%. For the same compound, the “MEAN CORPUSCULAR HEMOGLOBIN” value (time 14 day) was 20.2 pg, the “MEAN CORPUSCULAR HEMOGLOBIN CONCENTRATION” value (time 14 day) was 33.33 G/DL and the “MEAN CORPUSCULAR VOLUME” value (time 14 day) was 60.57 fL. For the same compound, the MONOCYTE (time 14 day) was 1.63%, the NEUTROPHIL (time 14 day) was 14.93% and the “PLATELET COUNT” value (time 14 day) was 1101.67 x10E3/uL. The “ALANINE AMINOTRANSFERASE” value (tissue Plasma, time 14 day) was 31.67 u/L, the ALBUMIN (tissue Plasma, time 14 day) was 3.83 G/DL and the “ALKALINE PHOSPHATASE” value (tissue Plasma, time 14 day) was 430.67 u/L. The “ASPARTATE AMINOTRANSFERASE” value (tissue Plasma, time 14 day) was 87 u/L, the “BLOOD UREA NITROGEN” value (tissue Plasma, time 14 day) was 14.33 mg/dL and the “CARBON DIOXIDE” value (tissue Plasma, time 14 day) was 39 mmol/L. For the same compound, the CHLORIDE (tissue Plasma, time 14 day) was 104 MEQ/L, the CHOLESTEROL (tissue Plasma, time 14 day) was 66 mg/dL and the “CREATINE PHOSPHOKINASE” value (tissue Plasma, time 14 day) was 441.67 u/L. For the same compound, the CREATININE (tissue Plasma, time 14 day) was 0.7 mg/dL, the GLUCOSE (tissue Plasma, time 14 day) was 125.67 mg/dL and the “LACTATE DEHYDROGENASE” value (tissue Plasma, time 14 day) was 397.67 u/L. For the same compound, the LIPASE (tissue Plasma, time 14 day) was 12.33 u/L, the PHOSPHORUS (tissue Plasma, time 14 day) was 9.87 mg/dL and the POTASSIUM (tissue Plasma, time 14 day) was 5.93 MEQ/L. The SODIUM (tissue Plasma, time 14 day) was 145 MEQ/L, the “TOTAL BILIRUBIN” value (tissue Plasma, time 14 day) was 0.37 mg/dL and the “TOTAL PROTEIN” value (tissue Plasma, time 14 day) was 6.27 G/DL. For the same compound, the “URIC ACID” value (tissue Plasma, time 14 day) was 0.67 mg/dL.
